Measurements from patent publication US20140031309A1, “Beta-L-N4 Hydroxycytosine Deoxynucleosides and their use as Pharmaceutical Agents in the Prophylaxis or Therapy of Viral Diseases” (MAX-DELBRUECK-CENTRUM FUER MOLEKULARE MEDIZIN, priority 2004, published 2014).
Several values for one entry are separate records, joined by “and”; a condition that tells them apart may be missing. Identical values can stand only once. Like-named read-outs stand apart in the source and are kept apart here.

Assays:
HBV [1] = test: Inhibition of HBV-replication in HepG2 2.2.15 cells (extracellular HBV DNA, PCR); format: cell-based, hepatitis B virus; conditions: read-out: EC50, concentration required for 50% reduction of HBV DNA in the medium of the cells
Experimental: The antiviral efficacy of the compounds of the invention was investigated on HepG2 2.2.15 cells, a human hepatoblastoma cell line which has the replication-competent HBV genome stably integrated therein and produces infectious progeny viruses in a productive manner (Sells et al., Proc Natl Acad Sci USA 1987, 84: 1005-1009).
The above cells were cultured under standardized conditions as specified by Korba and Gerin, and the amount of extracellular viral DNA was determined (Korba et al., Antiviral Res 1992, 19: 55-70).
Following passaging, the HepG2 2.2.15 cells were seeded at a density of about 60% in 12-well plates and cultured to confluence in 10% FBS Dulbecco MEM. Thereafter, the medium was changed to 2% FBS, and the cells were cultured for another 24 hours.
After another change of medium, the cells were treated with varying concentrations of compounds according to the invention. Every 24 hours the compounds were re-added together with the medium. On the 6th day of treatment, the cell supernatants were centrifuged off and stored at −20° C. until analysis of the HBV DNA was effected.
Following treatment of the culture supernatants with proteinase K, the extracellular viral DNA was amplified by means of PCR using the following primers (forward: 5′-CTCCAGTTCAGGAACAGTAAACCC-3′(SEQ ID NO. 1); reverse: 5′-TTGTGAGCTCAGAAAGGCCTTGTAAGTTGGCG-3′(SEQ ID NO. 2). The PCR products were separated on 1% agarose, stained with ethidium bromide and quantified using a Fluor-S™ Multimager (Biorad).
For calibration of the PCR reaction, serial dilutions of the pUC19 HBV and pTHBV plasmids with known genome equivalents (GE) were used, resulting in a lower detection limit of about 10^3 GE and a linearity between 10^3 and 10^5 GE.

HepG2-cells = test: Cytotoxicity, inhibition of proliferation of HepG2 cells; format: cell-based, human; conditions: for CD50, concentration producing 50% inhibition of cell proliferation: two days incubation; for antiproliferative activity: in words
Experimental: (§1) To this end, established cells of a human myeloid leukemia (HL-60) in RPMI medium, and the above-mentioned HepG2 cells in Dulbecco MEM, respectively, were incubated for two days using varying concentrations of compounds, and the proliferation rate of the cells was subsequently determined. The data were used to determine the concentration of compounds resulting in 50% inhibition of proliferation (CD50).

HL-60 cells = test: Cytotoxicity, inhibition of proliferation of HL-60 cells; format: cell-based, human; conditions: for CD50, concentration producing 50% inhibition of cell proliferation: two days incubation; for antiproliferative activity: in words
Experimental: as §1

HBV [2] = conditions: treatment of HBV infections; cited from earlier work
HBV DNA polymerase = target: T1, HBV DNA polymerase (Hepatitis B virus genotype D subtype ayw, UniProt P03156); test: Inhibition of endogenous HBV DNA polymerase by nucleoside triphosphates; format: biochemical; conditions: virus particles from patient serum, 3H-dCTP, 1 h 37° C., read-out: IC50, 50% inhibition of the HBV DNA polymerase activity
T1 construct: the endogenous HBV DNA polymerase activity; from tissue; host or cells: serum of patients with untreated hepatitis B virus infection; virus particles purified by ultracentrifugation and lysed
T1 sequence (P03156 whole entry): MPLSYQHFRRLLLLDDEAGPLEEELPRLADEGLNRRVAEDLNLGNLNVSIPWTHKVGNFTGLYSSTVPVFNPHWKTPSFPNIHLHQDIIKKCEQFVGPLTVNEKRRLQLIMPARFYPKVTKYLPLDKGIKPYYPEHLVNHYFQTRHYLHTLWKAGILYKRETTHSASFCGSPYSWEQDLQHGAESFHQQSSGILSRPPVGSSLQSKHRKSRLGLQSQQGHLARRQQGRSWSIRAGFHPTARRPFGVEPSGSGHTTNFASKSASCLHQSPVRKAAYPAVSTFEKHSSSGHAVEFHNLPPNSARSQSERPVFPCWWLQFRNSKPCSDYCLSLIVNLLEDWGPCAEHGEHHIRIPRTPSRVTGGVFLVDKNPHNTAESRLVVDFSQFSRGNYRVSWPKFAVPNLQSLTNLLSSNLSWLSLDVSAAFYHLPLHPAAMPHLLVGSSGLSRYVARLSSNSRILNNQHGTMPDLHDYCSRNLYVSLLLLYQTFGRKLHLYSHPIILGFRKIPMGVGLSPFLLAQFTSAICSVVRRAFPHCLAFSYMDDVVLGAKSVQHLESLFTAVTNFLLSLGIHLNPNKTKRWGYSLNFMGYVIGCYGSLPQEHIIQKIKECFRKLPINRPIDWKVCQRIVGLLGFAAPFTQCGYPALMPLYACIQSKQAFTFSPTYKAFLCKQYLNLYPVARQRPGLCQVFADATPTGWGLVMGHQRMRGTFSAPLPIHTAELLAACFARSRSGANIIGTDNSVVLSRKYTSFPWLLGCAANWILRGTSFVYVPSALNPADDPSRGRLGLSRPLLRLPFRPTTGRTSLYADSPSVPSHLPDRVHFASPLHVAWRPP
Experimental: To determine the endogenous HBV DNA polymerase activity, about 100 ml of serum from patients with untreated hepatitis B virus infections from Charité, Berlin, (>10^7 HBV particles/ml), was centrifuged at 3000 rpm. Virus particles of the cleared serum were sedimented in a Beckman SW28 rotor at 25,000 rpm, 60 min. The virus pellet was suspended in 7 ml of TKM buffer (50 mM Tris-HCl, pH 7.5, 50 mM KCl, 5 mM MgCl2), layered over a step gradient of 10 ml each of 0.3 M, 0.6 M, 0.9 M saccharose in TKM buffer and centrifuged at 25,000 rpm for 20 hours.
The purified virus pellet was suspended in 250 μl TKM buffer, lysed by ultrasound, divided in aliquots and frozen at −80° C. (Davies et al., Antiviral Res 1996, 30: 133-145).
The HBV DNA polymerase assay contained in 30 μl about 2-4×10^8 purified virus particles (lysed beforehand additionally in 6% β-mercaptoethanol, 10% Igepal for 15 min at room temperature), 42 mM Tris-HCl, (pH 7.5), 34 mM MgCl2, 340 mM KCl, 22 mM β-mer-captoethanol, 0.4% Igepal, 70 μM TTP, dATP, dGTP and 1 μCi ^3HdCTP (=0.7 μM dCTP) (Matthes et al., Antimicrob Agents & Chemother 1991, 35: 1254-1257) and varying concentrations of β-L-N4-hydroxycytosine nucleoside triphosphates as inhibitors.
Following a one-hour incubation at 37° C., 20 μl of the assay volume was placed on paper filter, washed 5 times with 5% trichloroacetic acid and 0.1% Na pyrophosphate, and the ^3H-dCMP incorporated in the HBV DNA was subsequently measured in a Liquid Scintillation Counter.
Using the concentration-dependent inhibition curves of HBV DNA synthesis, the concentration of β-L-N4-hydroxycytosine nucleoside triphosphates resulting in 50% inhibition of the HBV DNA polymerase activity was determined.

HIV = test: Inhibition of HIV replication; format: cell-based; conditions: read-out: EC50 against HIV replication
[3] = HepG2 2.2.15 cells, 6 days incubation, extracellular HBV DNA

With `O=c1nc(NO)ccn1[C@@H]1C=C[C@H](CO)O1` [L-HyddeC, β-L-2′,3′-didehydro-2′,3′-dideoxy-N4-hydroxycytidine] the EC50 (HBV [1]; [3]) was 50 nM, the “CD50, concentration producing 50% inhibition of cell proliferation” value (HepG2-cells) was over 5000 µM and the “CD50, concentration producing 50% inhibition of cell proliferation” value (HL-60 cells) was over 3500 µM.

With `[N-]=[N+]=N[C@@H]1C[C@@H](n2ccc(NO)nc2=O)O[C@H]1CO` [L-N3HyCdR, β-L-3′-azido-2′,3′-dideoxy-N4-hydroxycytidine] the “CD50, concentration producing 50% inhibition of cell proliferation” value (HepG2-cells) was 1160 µM and the “CD50, concentration producing 50% inhibition of cell proliferation” value (HL-60 cells) was 2000 µM.

For α-interferon, the “share of the patients in whom it is effective” value (HBV [2]) is listed as “about 33%”.

For `O=c1nc(NO)ccn1[C@@H]1CC[C@H](CO)O1` [L-HyddC, β-L-2′,3′-dideoxy-N4-hydroxycytidine], the antiproliferative activity (HepG2-cells) was “lost the antiproliferative activity”, the “CD50, concentration producing 50% inhibition of cell proliferation” value (HepG2-cells) was 2250 µM and the antiproliferative activity (HL-60 cells) was “lost the antiproliferative activity”. For the same molecule, the “CD50, concentration producing 50% inhibition of cell proliferation” value (HL-60 cells) was 1600 µM.

In the case of `Nc1ccn([C@@H]2CC[C@H](CO)O2)c(=O)n1` [L-ddC, β-L-2′,3′-dideoxycytidine, reference compound], the EC50 (HBV [1]; [3]) is reported as 250 nM.

For `O=c1nc(NO)ccn1[C@@H]1C=C[C@H](COP(=O)(O)OP(=O)(O)OP(=O)(O)O)O1` [Triphosphate of L-HyddeC], the IC50 (HBV DNA polymerase) was 150 to 650 nM and 280 nM.

Work on `Cc1cn([C@@H]2C[C@@H](O)[C@H](COP(=O)(O)OP(=O)(O)OP(=O)(O)O)O2)c(=O)nc1NO` [Triphosphate of L-HyMetCdR] yielded an IC50 (HBV DNA polymerase) of 4000 nM.

With `O=c1nc(NO)ccn1[C@H]1O[C@@H](CO)C=C1F` [L-HyFddeC, β-L-2′,3′-didehydro-2′,3′-dideoxy-2′-fluoro-N4-hydroxycytidine] the EC50 (HBV [1]; [3]) was under 100 nM, the antiproliferative activity (HepG2-cells) was “lost the antiproliferative activity” and the “CD50, concentration producing 50% inhibition of cell proliferation” value (HepG2-cells) was 1370 µM. For the same molecule, the antiproliferative activity (HL-60 cells) was “lost the antiproliferative activity” and the “CD50, concentration producing 50% inhibition of cell proliferation” value (HL-60 cells) was 1130 µM.

In the case of `Nc1nc(=O)n([C@@H]2C[C@@H](O)[C@H](CO)O2)cc1F` [L-FCdR, β-L-5-fluorodeoxycytidine, reference compound], the EC50 (HBV [1]; [3]) is reported as 1200 nM.

In the case of `O=c1nc(NO)ccn1[C@@H]1CS[C@H](COP(=O)(O)OP(=O)(O)OP(=O)(O)O)O1` [Triphosphate of L-Hy3TC], the IC50 (HBV DNA polymerase) is reported as 150 to 650 nM and 650 nM.

For `O=c1nc(NO)ccn1[C@H]1CS[C@@H](CO)O1` [Hy3TC, β-L-2′,3′-dideoxy-3′-thia-N4-hydroxycytidine], the EC50 (HBV [1]; [3]) was 500 nM, the “CD50, concentration producing 50% inhibition of cell proliferation” value (HepG2-cells) was 1230 µM and the “CD50, concentration producing 50% inhibition of cell proliferation” value (HL-60 cells) was 1450 µM. For the same molecule, the EC50 (HIV) was over 25000 nM.

For `Nc1ccn([C@@H]2CS[C@H](CO)O2)c(=O)n1` [3TC (lamivudine), β-L-2′,3′-dideoxy-3′-thiacytidine, reference compound], the EC50 (HBV [1]; Hepatitis B virus, HepG2 2.2.15, 144 h) was 100 nM, the “CD50, concentration producing 50% inhibition of cell proliferation” value (HepG2-cells) was 1900 µM and the “CD50, concentration producing 50% inhibition of cell proliferation” value (HL-60 cells) was 2000 µM.

With `O=c1nc(NO)ccn1[C@@H]1C[C@@H](F)[C@H](CO)O1` [L-FHyCdR, β-L-3′-fluoro-2′,3′-dideoxy-N4-hydroxycytidine] the “CD50, concentration producing 50% inhibition of cell proliferation” value (HepG2-cells) was 820 µM and the “CD50, concentration producing 50% inhibition of cell proliferation” value (HL-60 cells) was 4400 µM.

In the case of `O=c1nc(NO)c(F)cn1[C@@H]1C=C[C@H](CO)O1` [L-HyddeFC, β-L-2′,3′-didehydro-2′,3′-dideoxy-5-fluoro-N4-hydroxycytidine], the EC50 (HBV [1]; [3]) is reported as under 100 nM, the antiproliferative activity (HepG2-cells) is reported as “lost the antiproliferative activity” and the antiproliferative activity (HL-60 cells) is reported as “lost the antiproliferative activity”.

Work on `Cc1cn([C@@H]2C[C@@H](O)[C@H](CO)O2)c(=O)[nH]c1=O` [L-TdR, β-L-thymidine, reference compound] yielded an EC50 (HBV [1]; Hepatitis B virus, 144 h, HepG2 2.2.15 cells, 6 days incubation, extracellular HBV DNA) of 300 nM.

For `O=c1nc(NO)ccn1[C@@H]1C[C@@H](O)[C@H](COP(=O)(O)OP(=O)(O)OP(=O)(O)O)O1` [Triphosphate of L-HyCdR], the IC50 (HBV DNA polymerase) was 6000 nM.

For `O=c1nc(NO)ccn1[C@@H]1C[C@@H](O)[C@H](CO)O1` [L-HyCdR, β-L-N4-hydroxydeoxycytidine], the EC50 (HBV [1]; [3]) was 3000 nM, the “CD50, concentration producing 50% inhibition of cell proliferation” value (HepG2-cells) was 545 µM and the “CD50, concentration producing 50% inhibition of cell proliferation” value (HL-60 cells) was 460 µM.

With `O=c1nc(NO)ccn1[C@@H]1CC[C@H](COP(=O)(O)OP(=O)(O)OP(=O)(O)O)O1` [Triphosphate of L-HyddC] the IC50 (HBV DNA polymerase) was 150 to 650 nM and 550 nM.

With `Cc1cn([C@@H]2C[C@@H](O)[C@H](CO)O2)c(=O)nc1NO` [L-HyMetCdR, β-L-5-methyl-N4-hydroxydeoxycytidine] the “CD50, concentration producing 50% inhibition of cell proliferation” value (HepG2-cells) was 490 µM and the “CD50, concentration producing 50% inhibition of cell proliferation” value (HL-60 cells) was 600 µM.

With `O=c1nc(NO)c(F)cn1[C@@H]1C[C@@H](O)[C@H](CO)O1` [L-HyFCdR, β-L-5-fluoro-N4-hydroxydeoxycytidine] the EC50 (HBV [1]; [3]) was 4500 nM, the “CD50, concentration producing 50% inhibition of cell proliferation” value (HepG2-cells) was 920 µM and the “CD50, concentration producing 50% inhibition of cell proliferation” value (HL-60 cells) was 1370 µM.

For `O=c1nc(NO)c(F)cn1[C@H]1CS[C@@H](CO)O1` [HyFTC, β-L-2′,3′-dideoxy-3′-thia-5-fluoro-N4-hydroxycytidine], the EC50 (HBV [1]; [3]) was 300 nM, the “CD50, concentration producing 50% inhibition of cell proliferation” value (HepG2-cells) was 975 µM and the “CD50, concentration producing 50% inhibition of cell proliferation” value (HL-60 cells) was 1100 µM.

For `O=c1nc(NO)c(F)cn1[C@@H]1CC[C@H](CO)O1` [L-HyddFC, β-L-2′,3′-dideoxy-5-fluoro-N4-hydroxycytidine], the EC50 (HBV [1]; [3]) was 350 nM, the “CD50, concentration producing 50% inhibition of cell proliferation” value (HepG2-cells) was 1580 µM and the “CD50, concentration producing 50% inhibition of cell proliferation” value (HL-60 cells) was 1860 µM.
